Data on 26 compounds can be found in patent US8258160B2, “SCD1 inhibitors triazole and tetrazole compounds” (Novartis AG, priority 2006, dated 2012).

Bounds are passed on as bounds.

One may read the melting point as the temperature of the solid-liquid transition. The compound `Cc1nc(-c2cn(Cc3ccc(F)cc3)nn2)sc1C(=O)NCc1ccccc1` [Example 1.2, N-benzyl-2-(1-(4-fluorobenzyl)-1H-1,2,3-triazol-4-yl)-4-methylthiazole-5-carboxamide] registered a melting point of 114 to 115 °C. With `Cc1nc(-c2cn(Cc3ccc(C(F)(F)F)cc3)nn2)sc1C(=O)NCc1ccccc1` [Example 1.3, N-benzyl-4-methyl-2-(1-(4-(trifluoromethyl)benzyl)-1H-1,2,3-triazol-4-yl)thiazole-5-carboxamide], the melting point is 131 to 132 °C.

Compound `Cc1nc(-c2cn(Cc3ccccc3)nn2)sc1C(=O)NCc1cccnc1` [Example 4, 2-(1-benzyl-1H-1,2,3-triazol-4-yl)-4-methyl-N-(pyridin-3-ylmethyl)thiazole-5-carboxamide] yielded a melting point of 212 to 213 °C. Compound `Cc1nc(-c2cn(Cc3ccc(F)cc3)nn2)sc1C(=O)NCc1cccnc1` [Example 4.1, 2-(1-(4-fluorobenzyl)-1H-1,2,3-triazol-4-yl)-4-methyl-N-(pyridin-3-ylmethyl)thiazole-5-carboxamide] gave a melting point of 212 to 213 °C. As to `Cc1nc(-c2cn(Cc3ccc(C(F)(F)F)cc3)nn2)sc1C(=O)NCc1cccnc1` [Example 4.2, 4-methyl-N-(pyridin-3-ylmethyl)-2-(1-(4-(trifluoromethyl)benzyl)-1H-1,2,3-triazol-4-yl)thiazole-5-carboxamide], the melting point lay in the range of 204 to 205 °C. The compound `Cc1nc(-c2cn(CCC3CC3)nn2)sc1C(=O)NCc1cccnc1` [Example 4.4, 2-(1-(2-cyclopropylethyl)-1H-1,2,3-triazol-4-yl)-4-methyl-N-(pyridin-3-ylmethyl)thiazole-5-carboxamide] returned a melting point of 124 to 125 °C. In turn, `Cc1nc(-c2cn(CC3CC3)nn2)sc1C(=O)NCc1cccnc1` [Example 4.5, 2-(1-(cyclopropylmethyl)-1H-1,2,3-triazol-4-yl)-4-methyl-N-(pyridin-3-ylmethyl)thiazole-5-carboxamide] came in with a melting point of 140 to 141 °C. On to `Cc1nc(-c2nn[nH]n2)sc1C(=O)NCc1cccnc1` [Example 6, 4-methyl-N-(pyridin-3-ylmethyl)-2-(2H-tetrazol-5-yl)thiazole-5-carboxamide], for which the melting point was > 200 °C (dec.). For the compound `Cc1nc(-c2n[nH]c(Cc3ccccc3)n2)sc1C(=O)NCc1ccccc1` [Example 8, N-benzyl-2-(5-benzyl-1H-1,2,4-triazol-3-yl)-4-methylthiazole-5-carboxamide], the melting point lay in the range of 235 to 237 °C. In turn, `Cc1cc(-c2n[nH]c(Cc3ccccc3)n2)sc1C(=O)NCc1ccccc1` [Example 9, N-benzyl-5-(5-benzyl-1H-1,2,4-triazol-3-yl)-3-methylthiophene-2-carboxamide] came in with a melting point of 168 to 171 °C. As for `Cc1nc(-n2cc(-c3ccccc3)nn2)sc1C(=O)NCc1ccccc1` [Example 10, N-benzyl-4-methyl-2-(4-phenyl-1H-1,2,3-triazol-1-yl)thiazole-5-carboxamide], the melting point was 175 to 178 °C. For `Cc1nc(-n2cc(CCc3ccccc3)nn2)sc1C(=O)NCc1ccccc1` [Example 10.2, N-benzyl-4-methyl-2-(4-phenethyl-1H-1,2,3-triazol-1-yl)thiazole-5-carboxamide], the melting point is 167 to 170 °C. In the case of `Cc1nc(-n2cc(CCCc3ccccc3)nn2)sc1C(=O)NCc1ccccc1` [Example 10.3, N-benzyl-4-methyl-2-(4-(3-phenylpropyl)-1H-1,2,3-triazol-1-yl)thiazole-5-carboxamide], the melting point lay within 94 to 97 °C. As for `Cc1nc(-n2cc(COc3ccccc3)nn2)sc1C(=O)NCc1ccccc1` [Example 10.4, N-benzyl-4-methyl-2-(4-(phenoxymethyl)-1H-1,2,3-triazol-1-yl)thiazole-5-carboxamide], the melting point was in the range of 140 to 143 °C. The same measure for `COc1ccc(-c2cn(-c3nc(C)c(C(=O)NCc4ccccc4)s3)nn2)cc1` [Example 10.5, N-benzyl-2-(4-(4-methoxyphenyl)-1H-1,2,3-triazol-1-yl)-4-methylthiazole-5-carboxamide]: 168 to 171 °C; for `Cc1nc(-n2cc(-c3ccccn3)nn2)sc1C(=O)NCc1ccccc1` [Example 10.6, N-benzyl-4-methyl-2-(4-(pyridin-2-yl)-1H-1,2,3-triazol-1-yl)thiazole-5-carboxamide]: 184 to 187 °C; for `Cc1nc(-n2cc(C(O)c3ccccc3)nn2)sc1C(=O)NCc1ccccc1` (centres unmarked) [Example 10.7, N-benzyl-2-(4-(hydroxy(phenyl)methyl)-1H-1,2,3-triazol-1-yl)-4-methylthiazole-5-carboxamide]: 143 to 146 °C. Turning to `Cc1nc(-n2cc(-c3ccc(OCc4ccccc4)cc3)nn2)sc1C(=O)NCc1ccccc1` [Example 10.8, N-benzyl-2-(4-(4-(benzyloxy)phenyl)-1H-1,2,3-triazol-1-yl)-4-methylthiazole-5-carboxamide], the melting point is 237 to 240 °C. Compound `Cc1nc(-n2cc(-c3cccnc3)nn2)sc1C(=O)NCc1ccccc1` [Example 10.9, N-benzyl-4-methyl-2-(4-(pyridin-3-yl)-1H-1,2,3-triazol-1-yl)thiazole-5-carboxamide] gave a melting point of 117 to 119 °C. The same measure for `Cc1nc(-n2cc(CNc3ccccc3)nn2)sc1C(=O)NCc1ccccc1` [Example 10.10, N-benzyl-4-methyl-2-(4-((phenylamino)methyl)-1H-1,2,3-triazol-1-yl)thiazole-5-carboxamide]: 159 to 162 °C; for `Cc1nc(-n2cc(-c3ccsc3)nn2)sc1C(=O)NCc1ccccc1` [Example 10.11, N-benzyl-4-methyl-2-(4-(thiophen-3-yl)-1H-1,2,3-triazol-1-yl)thiazole-5-carboxamide]: 123 to 126 °C; for `Cc1nc(-n2cc([C@H](O)c3ccccc3)nn2)sc1C(=O)NCc1ccccc1` [Example 10.12, (R)—N-benzyl-2-(4-(hydroxy(phenyl)methyl)-1H-1,2,3-triazol-1-yl)-4-methylthiazole-5-carboxamide]: 146 to 149 °C. Regarding `Cc1nc(-n2cc(-c3ccc(F)cc3)nn2)sc1C(=O)NCc1ccccc1` [Example 10.13, N-benzyl-2-(4-(4-fluorophenyl)-1H-1,2,3-triazol-1-yl)-4-methylthiazole-5-carboxamide], the melting point lay within 203 to 205 °C.

`Cc1nc(-n2cc(C(=O)c3ccccc3)nn2)sc1C(=O)NCc1ccccc1` [Example 11, 2-(4-benzoyl-1H-1,2,3-triazol-1-yl)-N-benzyl-4-methylthiazole-5-carboxamide] gave a melting point of 176 to 178 °C. To `Cc1nc(-n2cc(CCCc3ccccc3)nn2)sc1C(=O)NCc1cccnc1` [Example 14, 4-methyl-2-(4-(3-phenylpropyl)-1H-1,2,3-triazol-1-yl)-N-(pyridin-3-ylmethyl)thiazole-5-carboxamide] belongs 108 to 110 °C; to `Cc1nc(-n2cc(CCCc3ccccc3)nn2)sc1C(=O)NCc1ccc(F)c(F)c1` [Example 14.1, N-(3,4-difluorobenzyl)-4-methyl-2-(4-(3-phenylpropyl)-1H-1,2,3-triazol-1-yl)thiazole-5-carboxamide], 81 to 84 °C.
